# Columns and labels:
# [1] = biological target: T1, kinases from mixed HeLa placenta lysates (Homo sapiens, UniProt P07948); assay: Kinobeads competition binding with immobilized CZC25342, mixed HeLa placenta lysates (Example 5, Table 7); details: kinase LYN; 10 μM free compound; HeLa Placenta lysate mix
# T1 construct: capturing and identification of kinases from mixed HeLa placenta lysates; endogenous in cells; host or cells: mixed lysate of HeLa cells and placenta tissue
# Method in brief: (§1)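 Mixed HeLa/placenta lysate was preincubated with 10 μM free CZC25342 or DMSO, followed by capture on beads bearing immobilized compound. Bound proteins were eluted, separated by SDS-PAGE, trypsin-digested, iTRAQ-labelled and quantified by LC-MS/MS. Percent competition was taken against the DMSO control.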
# [2] = biological target: T2, kinases from mixed HeLa placenta lysates (Homo sapiens, UniProt Q8TD19); assay: as above; details: kinase NEK9; 10 μM free compound; HeLa Placenta lysate mix
# T2 construct: capturing and identification of kinases from mixed HeLa placenta lysates; endogenous in cells; host or cells: mixed lysate of HeLa cells and placenta tissue
# Method in brief: as §1
# [3] = biological target: T3, kinases from mixed HeLa placenta lysates (Homo sapiens, UniProt Q6PHR2); assay: as above; details: kinase ULK3; 10 μM free compound; HeLa Placenta lysate mix
# T3 construct: capturing and identification of kinases from mixed HeLa placenta lysates; endogenous in cells; host or cells: mixed lysate of HeLa cells and placenta tissue
# Method in brief: as §1
# [4] = biological target: T4, kinases from mixed HeLa placenta lysates (Homo sapiens, UniProt Q02763); assay: as above; details: kinase TIE2; 10 μM free compound; HeLa Placenta lysate mix
# T4 construct: capturing and identification of kinases from mixed HeLa placenta lysates; endogenous in cells; host or cells: mixed lysate of HeLa cells and placenta tissue
# Method in brief: as §1
# [5] = biological target: T5, kinases from mixed HeLa placenta lysates (Homo sapiens, UniProt O94804); assay: as above; details: kinase LOK; 10 μM free compound; HeLa Placenta lysate mix
# T5 construct: capturing and identification of kinases from mixed HeLa placenta lysates; endogenous in cells; host or cells: mixed lysate of HeLa cells and placenta tissue
# Method in brief: as §1
# [6] = biological target: T6, kinases from mixed HeLa placenta lysates (Homo sapiens, UniProt Q2M2I8); assay: as above; details: kinase AAK1; 10 μM free compound; HeLa Placenta lysate mix
# T6 construct: capturing and identification of kinases from mixed HeLa placenta lysates; endogenous in cells; host or cells: mixed lysate of HeLa cells and placenta tissue
# Method in brief: as §1
# [7] = biological target: T7, kinases from mixed HeLa placenta lysates (Homo sapiens, UniProt Q9Y2U5); assay: as above; details: kinase MAP3K2; 10 μM free compound; HeLa Placenta lysate mix
# T7 construct: capturing and identification of kinases from mixed HeLa placenta lysates; endogenous in cells; host or cells: mixed lysate of HeLa cells and placenta tissue
# Method in brief: as §1
# [8] = biological target: T8, kinases from mixed HeLa placenta lysates (Homo sapiens, UniProt O75460); assay: as above; details: kinase IRE1; 10 μM free compound; HeLa Placenta lysate mix
# T8 construct: capturing and identification of kinases from mixed HeLa placenta lysates; endogenous in cells; host or cells: mixed lysate of HeLa cells and placenta tissue
# Method in brief: as §1
# [9] = biological target: T9, kinases from mixed HeLa placenta lysates (Homo sapiens, UniProt O96013); assay: as above; details: kinase PAK4; 10 μM free compound; HeLa Placenta lysate mix
# T9 construct: capturing and identification of kinases from mixed HeLa placenta lysates; endogenous in cells; host or cells: mixed lysate of HeLa cells and placenta tissue
# Method in brief: as §1
# [10] = biological target: T10, kinases from mixed HeLa placenta lysates (Homo sapiens, UniProt Q5TCX8); assay: as above; details: kinase MLK4; 10 μM free compound; HeLa Placenta lysate mix
# T10 construct: capturing and identification of kinases from mixed HeLa placenta lysates; endogenous in cells; host or cells: mixed lysate of HeLa cells and placenta tissue
# Method in brief: as §1
# [11] = biological target: T11, kinases from mixed HeLa placenta lysates (Homo sapiens, UniProt P19784); assay: as above; details: kinase CK2a2; 10 μM free compound; HeLa Placenta lysate mix
# T11 construct: capturing and identification of kinases from mixed HeLa placenta lysates; endogenous in cells; host or cells: mixed lysate of HeLa cells and placenta tissue
# Method in brief: as §1
# MST1 = biological target: T12, MST1 (Homo sapiens, UniProt Q13043); assay: Kinobeads competition binding, HeLa Placenta lysate mix; design: capturing and identification of kinases from mixed HeLa placenta lysates; endogenous in cells; host or cells: HeLa cells mixed with placenta tissue lysate; details: 10 μM free compound
# T12 sequence (Q13043 1-487): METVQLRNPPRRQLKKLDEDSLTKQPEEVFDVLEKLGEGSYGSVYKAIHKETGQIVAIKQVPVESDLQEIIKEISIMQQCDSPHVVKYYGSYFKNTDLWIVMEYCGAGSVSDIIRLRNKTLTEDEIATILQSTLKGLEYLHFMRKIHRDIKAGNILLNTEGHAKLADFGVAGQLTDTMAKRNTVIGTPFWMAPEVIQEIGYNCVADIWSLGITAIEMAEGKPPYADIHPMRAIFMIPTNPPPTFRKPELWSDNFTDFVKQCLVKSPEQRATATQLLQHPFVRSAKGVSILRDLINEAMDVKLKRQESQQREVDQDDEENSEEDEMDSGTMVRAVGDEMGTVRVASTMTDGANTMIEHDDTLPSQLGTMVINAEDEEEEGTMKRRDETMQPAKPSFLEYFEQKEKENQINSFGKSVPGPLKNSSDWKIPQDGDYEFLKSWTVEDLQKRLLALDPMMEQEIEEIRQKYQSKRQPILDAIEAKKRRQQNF
# Experimental: (§2) To one aliquot of cell lysate 10 μM of the free compound (FIG. 3, CZC31326) was added and allowed to bind to proteins in the lysate. Then the affinity matrix with the immobilized compound was added to capture proteins that were not interacting with the previously added free compound. Beads were separated from the lysate and bead bound proteins were eluted in SDS sample buffer and subsequently separated by SDS-Polyacrylamide gel electrophoresis (FIG. 10). Suitable gel bands were cut out and subjected to in-gel proteolytic digestion with trypsin. The second lysate aliquot was processed identically, however no free compound was added (DMSO solvent control). Peptides originating from samples 1 and 2 were labeled with iTRAQ reagents (iTRAQ 114 and iTRAQ 117) and the combined samples were analyzed with a nano-flow liquid chromatography system coupled online to a tandem mass spectrometer (LC-MS/MS) experiment followed by iTRAQ reporter ion quantification in the MS/MS spectra as described in Example 2.
# MLK4 = MLK4 (Homo sapiens, UniProt Q5TCX8); assay: as above; design: capturing and identification of kinases from mixed HeLa placenta lysates; endogenous in cells; host or cells: HeLa cells mixed with placenta tissue lysate; details: 10 μM free compound
# Experimental: as §2
# SYK = SYK (Homo sapiens, UniProt P43405); assay: as above; design: capturing and identification of kinases from mixed HeLa placenta lysates; endogenous in cells; host or cells: HeLa cells mixed with placenta tissue lysate; details: 10 μM free compound
# Experimental: as §2
Competition % LYN [1],Competition % ULK3 [3],Competition % TIE2 [4],Competition % LOK [5],Competition % AAK1 [6],Competition % MAP3K2 [7],Competition % IRE1 [8],Competition % PAK4 [9],Competition % MLK4 [10],Competition % CK2a2 [11],Competition % (MST1),inhibition at 10 µM (MLK4),Competition % (SYK),Structure (SMILES),Competition % NEK9 [2]
83.1%,94.8%,91.4%,97.7%,95.6%,94.7%,83.4%,94.8%,85.8%,95.4%,–,–,–,"CS(=O)(=O)Nc1ccccc1Nc1nc(Nc2cccc(OCCN)c2)ncc1F [CZC25342, N-(2-(2-(3-(2-aminoethoxy)phenylamino)-5-fluoropyrimidin-4-ylamino)phenyl)methanesulfonamide]",83%
–,–,–,–,–,–,–,–,–,–,94.6%,88.9%,93.4%,"CS(=O)(=O)Nc1ccccc1Nc1nc(Nc2cccc(OCCN)c2)ncc1Cl [CZC31326, N-(2-(2-(3-(2-aminoethoxy)phenylamino)-5-chloropyrimidin-4-ylamino)phenyl)methanesulfonamide]",–
